{"source": "PubChem BioAssay AID248", "about": "(DTP/NCI, 2004)", "test_system": "L1210 leukemia ip in BDF1 mice, survival T/C", "experiment": "NCI In Vivo Anticancer Drug Screen. Data for tumor model L1210 Leukemia (intraperitoneal) in B6D2F1 (BDF1) mice", "details": "endpoint: mean survival time, higher = longer survival", "summary_of_the_method": "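Read-out is survival time, reported as the treated-group measurement over the vehicle-control measurement.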", "key": {"[1]": {"details": "dose: 100.0 mg/kg/injection, schedule: Q01DX001 (ip), vehicle: carboxymethylcellulose (CMC)"}, "[2]": {"details": "dose: 100.0 mg/kg/injection, schedule: Q01DX009 (ip), vehicle: carboxymethylcellulose (CMC)"}, "[3]": {"details": "dose: 200.0 mg/kg/injection, schedule: Q01DX001 (ip), vehicle: carboxymethylcellulose (CMC)"}, "[4]": {"details": "dose: 400.0 mg/kg/injection, schedule: Q01DX001 (ip), vehicle: carboxymethylcellulose (CMC)"}, "[5]": {"details": "dose: 100.0 mg/kg/injection, schedule: Q04DX002 (ip), vehicle: carboxymethylcellulose (CMC)"}, "[6]": {"details": "dose: 100.0 mg/kg/injection, schedule: Q04DX003 (ip), vehicle: carboxymethylcellulose (CMC)"}, "[7]": {"details": "dose: 200.0 mg/kg/injection, schedule: Q01DX009 (ip), vehicle: carboxymethylcellulose (CMC)"}, "[8]": {"details": "dose: 200.0 mg/kg/injection, schedule: Q04DX002 (ip), vehicle: carboxymethylcellulose (CMC)"}, "[9]": {"details": "dose: 100.0 mg/kg/injection, schedule: Q04DX003 (ip), vehicle: Klucel (hydroxypropylcellulose) (HPC)"}, "[10]": {"details": "dose: 100.0 mg/kg/injection, schedule: Q01DX009 (ip), vehicle: Klucel (hydroxypropylcellulose) (HPC)"}}, "note": "“And” between values parts separate entries of the source, which are not always exact repeats. Equal entries are not always repeated. Toxic doses and inconclusive results are not listed.", "data": [{"smiles": "Cc1cc(N(CCCl)CCCl)ccc1/C=N\\Nc1nncn1N", "values": [{"measurement": "T/C", "setting": "dose: 25.0 mg/kg/injection, schedule: Q01DX009 (ip), vehicle: carboxymethylcellulose (CMC)", "result": "122 % of control"}, {"measurement": "T/C", "setting": "[1]", "result": "100 % of control"}, {"measurement": "T/C", "setting": "[2]", "result": "154 % of control"}, {"measurement": "T/C", "setting": "[3]", "result": "100 % of control"}, {"measurement": "T/C", "setting": "[4]", "result": "102 % of control"}]}, {"smiles": "Clc1cccc(N=C/C=C/c2ccccc2)c1", "values": [{"measurement": "T/C", "setting": "[1]", "result": "105 % of control"}, {"measurement": "T/C", "setting": "[2]", "result": "96 % of control and 100 % of control"}, {"measurement": "T/C", "setting": "[5]", "result": "94 % of control and 100 % of control"}, {"measurement": "T/C", "setting": "[6]", "result": "92 % of control"}, {"measurement": "T/C", "setting": "[3]", "result": "96 % of control"}, {"measurement": "T/C", "setting": "[7]", "result": "107 % of control and 92 % of control"}, {"measurement": "T/C", "setting": "[8]", "result": "95 % of control and 97 % of control"}, {"measurement": "T/C", "setting": "dose: 200.0 mg/kg/injection, schedule: Q04DX003 (ip), vehicle: carboxymethylcellulose (CMC)", "result": "96 % of control"}, {"measurement": "T/C", "setting": "[4]", "result": "102 % of control"}, {"measurement": "T/C", "setting": "dose: 400.0 mg/kg/injection, schedule: Q01DX009 (ip), vehicle: carboxymethylcellulose (CMC)", "result": "103 % of control"}, {"measurement": "T/C", "setting": "dose: 400.0 mg/kg/injection, schedule: Q04DX002 (ip), vehicle: carboxymethylcellulose (CMC)", "result": "94 % of control and 98 % of control"}, {"measurement": "T/C", "setting": "dose: 400.0 mg/kg/injection, schedule: Q04DX003 (ip), vehicle: carboxymethylcellulose (CMC)", "result": "107 % of control"}]}, {"smiles": "c1coc(C2SCSCS2)c1", "values": [{"measurement": "T/C", "setting": "[9]", "result": "105 % of control"}, {"measurement": "T/C", "setting": "dose: 200.0 mg/kg/injection, schedule: Q04DX003 (ip), vehicle: Klucel (hydroxypropylcellulose) (HPC)", "result": "101 % of control"}, {"measurement": "T/C", "setting": "dose: 400.0 mg/kg/injection, schedule: Q04DX003 (ip), vehicle: Klucel (hydroxypropylcellulose) (HPC)", "result": "95 % of control"}]}, {"smiles": "COC(=O)C12C=CC(C1)n1c(=O)n(-c3ccccc3)c(=O)n12", "note": "(centres undefined)", "values": [{"measurement": "T/C", "setting": "dose: 100.0 mg/kg/injection, schedule: Q04DX003 (ip), vehicle: saline with Tween-80", "result": "97 % of control"}, {"measurement": "T/C", "setting": "dose: 200.0 mg/kg/injection, schedule: Q04DX003 (ip), vehicle: saline with Tween-80", "result": "105 % of control"}, {"measurement": "T/C", "setting": "dose: 400.0 mg/kg/injection, schedule: Q04DX003 (ip), vehicle: saline with Tween-80", "result": "103 % of control"}]}, {"smiles": "Cc1ccccc1NC(=S)N(C)C", "values": [{"measurement": "T/C", "setting": "dose: 25.0 mg/kg/injection, schedule: Q01DX009 (ip), vehicle: Klucel (hydroxypropylcellulose) (HPC)", "result": "103 % of control"}, {"measurement": "T/C", "setting": "dose: 25.0 mg/kg/injection, schedule: Q04DX003 (ip), vehicle: Klucel (hydroxypropylcellulose) (HPC)", "result": "98 % of control"}, {"measurement": "T/C", "setting": "dose: 50.0 mg/kg/injection, schedule: Q01DX009 (ip), vehicle: Klucel (hydroxypropylcellulose) (HPC)", "result": "104 % of control"}, {"measurement": "T/C", "setting": "dose: 50.0 mg/kg/injection, schedule: Q04DX003 (ip), vehicle: Klucel (hydroxypropylcellulose) (HPC)", "result": "91 % of control"}, {"measurement": "T/C", "setting": "[10]", "result": "103 % of control"}, {"measurement": "T/C", "setting": "[9]", "result": "95 % of control and 103 % of control"}]}, {"smiles": "CCN(CC)CCNc1ccccc1[N+](=O)[O-]", "values": [{"measurement": "T/C", "setting": "dose: 75.0 mg/kg/injection, schedule: Q01DX001 (ip), vehicle: acid diluted with saline", "result": "100 % of control"}, {"measurement": "T/C", "setting": "dose: 75.0 mg/kg/injection, schedule: Q04DX003 (ip), vehicle: acid diluted with saline", "result": "103 % of control"}, {"measurement": "T/C", "setting": "dose: 150.0 mg/kg/injection, schedule: Q01DX001 (ip), vehicle: acid diluted with saline", "result": "102 % of control"}, {"measurement": "T/C", "setting": "dose: 150.0 mg/kg/injection, schedule: Q04DX003 (ip), vehicle: acid diluted with saline", "result": "95 % of control"}, {"measurement": "T/C", "setting": "dose: 300.0 mg/kg/injection, schedule: Q01DX001 (ip), vehicle: acid diluted with saline", "result": "110 % of control"}]}, {"smiles": "O=c1ccc2nc3cc(Cl)ccc3sc-2c1", "values": [{"measurement": "T/C", "setting": "[10]", "result": "95 % of control"}, {"measurement": "T/C", "setting": "dose: 200.0 mg/kg/injection, schedule: Q01DX009 (ip), vehicle: Klucel (hydroxypropylcellulose) (HPC)", "result": "96 % of control"}, {"measurement": "T/C", "setting": "dose: 400.0 mg/kg/injection, schedule: Q01DX009 (ip), vehicle: Klucel (hydroxypropylcellulose) (HPC)", "result": "87 % of control"}]}, {"smiles": "Cc1cc(CC#N)c(CC#N)cc1C", "values": [{"measurement": "T/C", "setting": "dose: 50.0 mg/kg/injection, schedule: Q01DX001 (ip), vehicle: carboxymethylcellulose (CMC)", "result": "110 % of control"}, {"measurement": "T/C", "setting": "dose: 50.0 mg/kg/injection, schedule: Q01DX009 (ip), vehicle: carboxymethylcellulose (CMC)", "result": "96 % of control and 117 % of control"}, {"measurement": "T/C", "setting": "dose: 50.0 mg/kg/injection, schedule: Q04DX002 (ip), vehicle: carboxymethylcellulose (CMC)", "result": "94 % of control and 102 % of control"}, {"measurement": "T/C", "setting": "dose: 50.0 mg/kg/injection, schedule: Q04DX003 (ip), vehicle: carboxymethylcellulose (CMC)", "result": "98 % of control"}, {"measurement": "T/C", "setting": "[1]", "result": "97 % of control"}, {"measurement": "T/C", "setting": "[2]", "result": "100 % of control and 106 % of control"}, {"measurement": "T/C", "setting": "[5]", "result": "102 % of control and 105 % of control"}, {"measurement": "T/C", "setting": "[6]", "result": "95 % of control"}, {"measurement": "T/C", "setting": "[7]", "result": "96 % of control"}, {"measurement": "T/C", "setting": "[8]", "result": "97 % of control and 107 % of control"}]}, {"smiles": "O=C1c2ccccc2C(=O)C1N=Nc1ccccc1", "values": [{"measurement": "T/C", "setting": "dose: 50.0 mg/kg/injection, schedule: Q01DX001 (ip), vehicle: saline", "result": "102 % of control"}, {"measurement": "T/C", "setting": "dose: 100.0 mg/kg/injection, schedule: Q01DX001 (ip), vehicle: saline", "result": "100 % of control"}, {"measurement": "T/C", "setting": "dose: 200.0 mg/kg/injection, schedule: Q01DX001 (ip), vehicle: saline", "result": "94 % of control"}, {"measurement": "T/C", "setting": "dose: 400.0 mg/kg/injection, schedule: Q01DX001 (ip), vehicle: saline", "result": "96 % of control"}]}, {"smiles": "O=C(CCl)NC1C2CC3CC(C2)CC1C3", "note": "(centres undefined)", "values": [{"measurement": "T/C", "setting": "dose: 100.0 mg/kg/injection, schedule: Q04DX002 (ip), vehicle: Klucel (hydroxypropylcellulose) (HPC)", "result": "104 % of control"}, {"measurement": "T/C", "setting": "dose: 200.0 mg/kg/injection, schedule: Q04DX002 (ip), vehicle: Klucel (hydroxypropylcellulose) (HPC)", "result": "101 % of control"}, {"measurement": "T/C", "setting": "dose: 400.0 mg/kg/injection, schedule: Q04DX002 (ip), vehicle: Klucel (hydroxypropylcellulose) (HPC)", "result": "96 % of control"}]}]}
